The results in this text go back to ChEMBL document CHEMBL5523759, “Discovery of Novel HDAC3 Inhibitors with PD-L1 Downregulating/Degrading and Antitumor Immune Effects” (J Med Chem, 2024).

For data set [1], the system named is B16-F10. Briefly: Induction of cell cycle arrest in mouse B16-F10 cells assessed as accumulation of cells at G0/G1 phase measured for 48 hrs by flow cytometry analysis. Conditions: dose 0.5-4 µM. In kind it is functional, cell-based. (In general: A flow cytometer gives signals particle by particle.)
A further data set relates to Daudi. Nature of the data set: Antiproliferative activity against human Daudi cells assessed as reduction in cell viability measured for 48 hrs by MTT assay. In kind it is functional, cell-based. Background: Tetrazolium dyes change colour on reduction, which living cells bring about.
A further data set deals with Raji. Nature of the data set: Antiproliferative activity against human Raji cells assessed as reduction in cell viability measured for 48 hrs by MTT assay. In kind it is functional, cell-based.
Data set [2] can be described thus: Aqueous solubility of compound measured for 24 hrs by shake flask based HPLC analysis. In kind it is physicochemical. Conditions: buffer.
In data set [3] the test system is B16-F10. Nature of the data set: Antiproliferative activity against mouse B16-F10 cells assessed as reduction in cell viability measured for 48 hrs by MTT assay. In kind it is functional, cell-based. The note with it: B16-F10, 48 h.
In data set [4] the test system is B16-F10. Nature of the data set: Induction of apoptosis in mouse B16-F10 cells at 1 uM measured for 48 hrs by Annexin-V/FITC staining based flow cytometry analysis relative to control. The class given is functional.
The next data set addresses T1, Histone deacetylase 7 (Homo sapiens, UniProt Q8WUI4).
T1 sequence (Q8WUI4 whole entry): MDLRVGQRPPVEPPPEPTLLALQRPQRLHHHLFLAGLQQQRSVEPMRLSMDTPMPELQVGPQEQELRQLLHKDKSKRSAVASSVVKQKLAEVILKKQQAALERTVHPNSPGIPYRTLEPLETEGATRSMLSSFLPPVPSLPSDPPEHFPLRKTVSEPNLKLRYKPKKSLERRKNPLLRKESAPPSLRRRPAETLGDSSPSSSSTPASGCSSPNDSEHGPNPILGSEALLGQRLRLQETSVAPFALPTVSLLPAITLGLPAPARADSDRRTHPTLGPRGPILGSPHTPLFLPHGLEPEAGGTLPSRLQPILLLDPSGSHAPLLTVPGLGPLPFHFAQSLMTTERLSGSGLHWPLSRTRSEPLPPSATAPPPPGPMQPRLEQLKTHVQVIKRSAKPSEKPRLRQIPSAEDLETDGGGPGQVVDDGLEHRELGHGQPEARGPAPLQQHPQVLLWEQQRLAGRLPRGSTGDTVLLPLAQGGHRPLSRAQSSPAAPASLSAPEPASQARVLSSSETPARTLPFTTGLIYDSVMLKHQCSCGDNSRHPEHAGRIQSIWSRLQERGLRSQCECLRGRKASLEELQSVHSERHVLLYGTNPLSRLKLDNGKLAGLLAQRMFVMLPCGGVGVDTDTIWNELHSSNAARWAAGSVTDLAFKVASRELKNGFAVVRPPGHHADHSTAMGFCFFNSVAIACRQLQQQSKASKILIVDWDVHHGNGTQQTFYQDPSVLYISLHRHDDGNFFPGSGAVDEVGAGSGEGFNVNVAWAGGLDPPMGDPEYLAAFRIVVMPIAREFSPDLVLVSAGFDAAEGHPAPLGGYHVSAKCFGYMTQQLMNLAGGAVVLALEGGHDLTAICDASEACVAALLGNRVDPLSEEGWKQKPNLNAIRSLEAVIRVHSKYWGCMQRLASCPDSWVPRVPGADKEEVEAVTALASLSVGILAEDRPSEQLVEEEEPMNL
Briefly: Inhibition of human recombinant HDAC7 using Ac-Leu-Gly-Lys (Tfa)-AMC as substrate preincubated with compound for 10 mins followed by substrate addition and measured after 45 mins by TECAN microtiter plate reader analysis.

Data set [5] relates to B16-F10. Nature of the data set: Induction of apoptosis in mouse B16-F10 cells at 0.5 uM measured for 48 hrs by Annexin-V/FITC staining based flow cytometry analysis relative to control. The class given is functional.
For data set [6], the target named is T2, Protein deacetylase HDAC6 (Mus musculus) (UniProt Q9Z2V5).
T2 sequence (whole entry): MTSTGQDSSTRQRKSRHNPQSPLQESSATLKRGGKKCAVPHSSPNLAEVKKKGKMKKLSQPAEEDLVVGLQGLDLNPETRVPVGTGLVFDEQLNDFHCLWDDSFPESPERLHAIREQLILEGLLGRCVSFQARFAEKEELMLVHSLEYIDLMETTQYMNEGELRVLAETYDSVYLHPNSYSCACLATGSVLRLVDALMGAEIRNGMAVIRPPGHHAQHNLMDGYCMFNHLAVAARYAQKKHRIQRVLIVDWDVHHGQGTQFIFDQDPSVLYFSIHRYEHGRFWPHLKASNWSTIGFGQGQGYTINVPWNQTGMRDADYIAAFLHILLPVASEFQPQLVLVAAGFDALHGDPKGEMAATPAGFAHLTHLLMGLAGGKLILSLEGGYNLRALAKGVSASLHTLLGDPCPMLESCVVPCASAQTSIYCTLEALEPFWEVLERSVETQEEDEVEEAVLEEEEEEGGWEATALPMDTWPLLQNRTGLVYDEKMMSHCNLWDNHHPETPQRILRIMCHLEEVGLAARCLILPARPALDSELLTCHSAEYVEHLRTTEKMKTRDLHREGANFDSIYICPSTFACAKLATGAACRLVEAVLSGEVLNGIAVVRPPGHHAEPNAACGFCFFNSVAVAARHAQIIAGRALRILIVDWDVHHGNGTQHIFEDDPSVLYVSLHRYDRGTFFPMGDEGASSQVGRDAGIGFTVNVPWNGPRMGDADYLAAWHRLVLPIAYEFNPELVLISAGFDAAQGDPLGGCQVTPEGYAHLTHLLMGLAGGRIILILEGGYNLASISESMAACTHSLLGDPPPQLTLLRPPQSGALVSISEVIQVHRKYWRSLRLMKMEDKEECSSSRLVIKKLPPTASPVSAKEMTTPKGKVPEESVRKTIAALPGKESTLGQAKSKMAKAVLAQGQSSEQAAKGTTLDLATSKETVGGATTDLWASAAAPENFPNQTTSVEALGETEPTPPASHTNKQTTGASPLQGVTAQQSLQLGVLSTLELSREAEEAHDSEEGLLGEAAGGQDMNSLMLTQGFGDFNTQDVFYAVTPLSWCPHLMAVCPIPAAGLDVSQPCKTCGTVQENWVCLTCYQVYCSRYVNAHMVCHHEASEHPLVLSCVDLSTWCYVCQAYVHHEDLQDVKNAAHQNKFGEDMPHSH
Nature of the data set: Inhibition of HDAC6 in mouse B16-F10 cells assessed as effect on acetylated alpha-tubulin level at 1 to 2 uM measured for 24 hrs by Western blot analysis. In kind it is cell-based. The note with it: dose 1-2 µM. (A western blot detects proteins with antibodies after separation by electrophoresis.)

Data set [7] in a line: Antiproliferative activity against human MINO cells assessed as reduction in cell viability measured for 48 hrs by MTT assay. In kind it is functional, cell-based.
The subject of another data set is HepG2. Nature of the data set: Antiproliferative activity against human HepG2 cells assessed as reduction in cell viability measured for 48 hrs by MTT assay. Conditions: HepG2, 48 h. The class given is functional, cell-based.
Another data set relates to MCF7. Briefly: cells. Conditions: Homo sapiens, MCF7, 48 h.
In a further data set the test system is Jurkat. Nature of the data set: Antiproliferative activity against human Jurkat T cells assessed as reduction in cell viability measured for 48 hrs by CCK-8 assay. In kind it is functional, cell-based.

pIC50: −log10 of the molar value. In brackets after ≈: the same amount, converted by molar mass. Activity calls are given as the source filed them. No cut-off for these calls is given here.

Description for MCF7: Antiproliferative activity against human MCF7 cells assessed as reduction in cell viability measured for 48 hrs by MTT assay

Regarding `Nc1ccccc1NC(=O)c1ccc(-c2ncc(CNc3ccccc3)s2)cc1`, the Activity result in the data set with B16-F10 [1] was “Dose-Dependent Effect”; in the data set on B16-F10 [4], 13.2%; in the data set on B16-F10 [5] it was 11%. Moreover, the outcome with Daudi and in the data set with Raji was Active. The solubility (thermodynamic) (in general, solubility found after equilibrating the solid with the medium) at 24 h in data set [2] came out at 3.8 µg/mL (≈ 9.49 µM). Moreover, the pIC50 (as a rule, −log10 of the IC50, conventionally taken in molar units) was 5.87 with B16-F10 [3]; less than 5.00 on Histone deacetylase 7; 7.28 in data set [7]; 6.02 with HepG2; 5.48 in the data set with MCF7; 6.85 in the data set with Jurkat. Besides, the inhibition result in data set [6] was “inactive”.

As to `CCCNNC(=O)c1ccc(CNC(=O)c2ncc(CNc3ccccc3)s2)cc1`, the Activity entry in the data set on B16-F10 [1] is “Dose-Dependent Effect”; with B16-F10 [4] it was 31.49%; in the data set on B16-F10 [5], 21.23%. Besides, the outcome in the data set on Daudi and in the data set with Raji was Active. The same compound yielded a thermodynamic solubility at 24 h in [2] of 15.6 µg/mL (≈ 36.8 µM). Further, the pIC50 with B16-F10 [3] is 5.92; at Histone deacetylase 7, less than 5.00; in data set [7] it was 7.52; in the data set with HepG2, 6.62; in the data set on MCF7 it was 5.53; with Jurkat, 7.05. In [6], the inhibition entry is “inactive”.
